# Records with an inconclusive call do not appear. The source made the active and inactive calls.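 How the source made its calls: active means signal-lowering compounds whose fitted half-maximal concentration is at most ten times their highest tested dose; inconclusive means flat fit between -30 and -70%, or poor fit; inactive means flat within 30%, signal rising, or potency beyond limit.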
# Molecular target: POS-1 (Caenorhabditis elegans) binding to mex-3 RNA
# Assay: C. elegans POS-1 RNA interaction disruptors – biochemical, fluorescence polarization, cherry-picked samples, set 2, counter-screen for MEX-5 RNA-binding inhibitor project, dose response (AID 493130);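 further: POS-1 as maltose binding protein fusion made in E. coli with FITC RNA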
# Details: POS-1/mex-3 RNA fluorescence polarization, 1 h
row,SMILES,AC50
1,COc1ccccc1C(=O)Oc1ccc2c(c1)O/C(=C\c1ccncc1)C2=O,3.41 µM
2,Cc1ccc(NC(=O)/C(C#N)=C(\N)C(Cl)(Cl)Cl)nc1,6.68 µM
3,O=c1[nH]c(-[n+]2ccccc2)c(/C=N/NC([S-])=Nc2ccccc2)s1,5.9 µM
4,CC(=O)Nc1ccc(S(=O)(=O)NNC(=O)C(=O)NNc2ccccn2)cc1,> 10 µM (inactive)
5,Cc1ccc(C)n1-c1sccc1C(=O)O,6.08 µM
6,Nc1ccc2nc3c(=O)n(CCc4ccccc4)c(=O)[nH]c3nc2c1,1.22 µM
7,CCOc1ccc(N=Nc2c(=O)[nH]n3c(=O)cc(C)[nH]c23)cc1,> 10 µM (inactive)
8,Cc1ccc(C)n1-c1ccccc1N,5.78 µM
9,CCOc1cc(/C=C2\CCCc3c2nc2ccccc2c3C(=O)O)ccc1OC,0.948 µM
10,COc1ccc2c(c1)NP(=S)(Oc1ccccc1)N2 (stereo not given),6.91 µM

# Same assay, conditions: POS-1/mex-3 RNA fluorescence polarization, 1 h; at 10 µM (top of the series)
row,SMILES,"activity change, negative = inhibition"
1,CCOc1cc(/C=N/NC(=O)N/N=C/c2ccc(O)c(OCC)c2)ccc1O,inactive
2,Cc1cc(C(=O)N/N=C/c2ccc(-c3ccc(C)c(Cl)c3)o2)n[nH]1,inactive
3,CC[n+]1c(/C=C/C=C/c2ccc(N(C)C)cc2)sc2ccccc21,inactive
4,Cc1cccc(-n2c(N)c(-c3nc4ccccc4n3C)c3nc4ccccc4nc32)c1,inactive
5,OC(CNC1CCCC1)COc1ccccc1Br (stereo not given),inactive
6,Cc1ccc(C(=O)NNc2ncnc3c2cnn3C)cc1,inactive
7,CN(N)N=Nc1nc2c([nH]1)c(=O)n(C)c(=O)n2C,inactive
8,Nc1nc(-c2ccc(Cl)cc2)nnc1-c1ccc(Br)cc1,inactive
9,Cc1nnc(N2C(=O)C(O)=C(C(=O)c3ccco3)C2c2ccc(C(C)C)cc2)s1 (stereo not given),inactive
10,N=C(N)N=Nc1c(O)[nH]c2ccc(Br)cc12,inactive
11,COCCn1c(=N)c(S(=O)(=O)c2ccc(F)cc2)cc2c(=O)n3ccccc3nc21,inactive
12,Oc1sc(C=Nc2ccc(F)cc2)c2ccccc12,inactive
13,CCc1nnc2c(N(C)C)nc3ccccc3n12,inactive
14,Cc1c(C(=O)NNC(=S)Nc2ccc(S(N)(=O)=O)cc2)oc2ccccc12,inactive
15,O=C(NNC(=O)c1cccs1)c1csc(N2CCOCC2)n1,inactive
16,O=C(NN=C1C2CC3CC1CC(Cl)(C3)C2)c1ccccn1,inactive
17,Cc1c(Cl)cccc1NC(=O)C(=O)NNS(=O)(=O)c1ccc(F)cc1,inactive
18,CCCOc1ccc([C@@H]2C3CN(C(=O)OCC)CC=C3C(C#N)=C(N)C2(C#N)C#N)cc1OC (stereo not given in full),inactive
19,Cc1ccc(S(=O)(=O)c2cc3c(=O)n4ccccc4nc3n(C)c2=N)cc1,inactive
20,O=c1[nH]nc(CNc2ccc(Cl)cc2Cl)c2ccccc12,inactive

row,SMILES,"activity change, negative = inhibition"
1,COc1ccc(OC)c(Nc2nc(-c3ccc(O)c(O)c3)cs2)c1,inactive
2,Cc1ccc2c(c1)-c1ccccc1S(=O)(=O)N2,inactive
3,Cc1cc2c(C)nc(N/N=C/c3ccc([N+](=O)[O-])cc3)nc2o1,inactive
4,O=C(Nc1cccc2ncccc12)c1ccccc1[N+](=O)[O-],inactive
5,CCN1C/C(=C/c2ccc(OC)c(O)c2)C(=O)/C(=C/c2ccc(OC)c(O)c2)C1,inactive
6,O=C(O)c1ccc(/C=C2\SC(=S)N(Nc3ccccc3)C2=O)cc1,inactive
7,COC1=C(Nc2ccc(O)cc2)C(=O)c2ccccc2C1=O,inactive
8,Cc1ccc(NC(=O)CCC(=O)NNC(=S)Nc2ccc(F)cc2)c(C)c1,inactive
9,Cc1ccc(NC(=O)CCC(=O)NNC(=S)Nc2ccccc2)c(C)c1,inactive
10,Cc1cccc(C)c1NC(=O)/C(C#N)=C/c1cccs1,inactive
11,CCCc1nc2c(=O)n(C)c(=O)[nH]c2n1C,inactive
12,Cc1nnc(-c2cccc(Br)c2)c2cn(-c3cccc(Br)c3)nc12,inactive
13,COC(=O)CCC(=O)NC(=S)Nc1sc(C)c(C)c1C(N)=O,inactive
14,Oc1cc2c(c(Cl)c1O)CCNCC2c1ccccc1 (stereo not given),inactive
15,C/C=C(\C)CN1CCC(n2nccc2NC(=O)CCCc2ccccc2)CC1,inactive
16,O=C(/C=C/Nc1ccc(S(=O)(=O)Nc2cnc3ccccc3n2)cc1)c1ccccc1,inactive
17,O=C(NC1CCSc2ccccc21)c1ccccc1Br (stereo not given),inactive
18,Cc1cc2ccccc2n1CCNC(=O)c1ccc(Br)o1,inactive
19,Cn1ccc(=Nc2ccc(NC(=O)c3ccc(N=c4ccn(C)c5ccc([N+](=O)[O-])cc45)cc3)cc2)cc1,inactive
20,COCC(C)N1CCC(n2nccc2NC(=O)CCCc2ccccc2)CC1 (stereo not given),inactive

row,SMILES,"activity change, negative = inhibition"
1,Cc1cccc(C(=O)NNC(=O)c2csc(N3CCOCC3)n2)c1C,inactive
2,Cn1cc(CNC(=O)C2c3ccccc3Oc3ccccc32)cn1,inactive
3,N=C1C(c2nc3ccccc3[nH]2)=C(O)CN1c1ccc(F)cc1,inactive
4,O=C(O)c1ccc(NCc2cccnc2)cc1,inactive
5,O=C(Nc1cccnc1)c1cccs1,inactive
6,CCOC(=O)CC1=C(C(=O)OCC)C(c2ccc(OC)c(OC)c2)C(C#N)=C(N)O1 (stereo not given),inactive
7,CC1(C)NC(=O)NC2(C)NC(=O)NC(C)(C)C12 (stereo not given),inactive
8,O=C1SC(SCc2ccccc2Cl)=N/C1=C\c1ccc(C(=O)O)cc1,inactive
9,Cc1ccc(-c2ccc(/C=N/N=C3/NC(=O)C(CC(=O)O)S3)o2)c([N+](=O)[O-])c1 (stereo not given),inactive
10,CCOC(=O)c1ccc(NC(=O)C(=O)NCc2ccc(/C=C(/C#N)C(=O)NCCOC)o2)cc1,inactive
11,COC(=O)c1ccc(CC(=O)c2c(C)cc(O)cc2O)o1,inactive
12,Oc1c(Cl)cc(Cl)c2c1NCCC2,inactive
13,O=C(CN1C(=O)/C(=C/c2cccc(Br)c2)SC1=S)NC1=NCCS1,inactive
14,O=C(/C=C/c1ccc(O)c(O)c1)OC1C(O)CC(OC(=O)/C=C/c2ccc(O)c(O)c2)(C(=O)O)CC1O (stereo not given),inactive
15,O=[N+]([O-])c1ccc(O)c(C=Nc2ccc3c(c2)OCCO3)c1,inactive
16,CC(=O)Nc1ccc(/C=N/NC(=O)CNS(=O)(=O)c2ccccc2)cc1,inactive
17,CCCC(=O)Nc1ccc(NC(=O)c2cccs2)cn1,inactive
18,NC(=O)C(=O)N/N=C/c1c2ccccc2cc2ccccc12,inactive
19,COc1ccc(N=C2S/C(=C\c3ccc(N4CCOCC4)o3)C(=O)N2CCc2c[nH]c3ccccc23)cc1,inactive
20,O=C(N/N=C/c1cccnc1)c1ccccc1,inactive

# Reference: PubChem BioAssay AID493130 (Broad Institute, 2011)
